Tested on: cultured cells of Taxus media
Assay: Taxus media cell culture with derivatives of jasmonic acids
Type: cell-based
Description: A part of germ of Taxus media which had been previously sterilized with 2% antiformin solution or 70% ethanol solution or the like, was placed on solid Woody Plant Medium (containing gelan gum of 0.25% by weight) to which naphthalenacetic acid had been added to give the concentration of 10^−5 M, and static culture was carried out at 25° C. in a dark place to provide callus of Taxus media. One gram (fresh weight) of the callus was inoculated to an Erlenmeyer flask containing 20 ml of liquid Woody Plant Medium to which above-mentioned component was added to give the same concentration, the and shake culture was carried out with a rotary shaker (amplification of 25 mm, 100 rpm) and the callus was subcultured in every 14 days to accelerate the growth rate thereof.
Two grams (fresh weight) of the cultured cells thus obtained was inoculated to an Erlenmeyer flask containing 20 ml of liquid Woody Plant […], and the culture was further carried out for another 14 days.
After completing the culture, cultured cells of Taxus media were harvested by filtration and lyophilized, then the dry weight was measured to obtain the yield of the cultured cells per liter of the liquid medium.

[1] = concentration of derivative of jasmonic acids 0.001 μM
[2] = concentration of derivative of jasmonic acids 0.01 μM
[3] = concentration of derivative of jasmonic acids 0.1 μM
[4] = concentration of derivative of jasmonic acids 1 μM
[5] = concentration of derivative of jasmonic acids 10 μM
[6] = concentration of derivative of jasmonic acids 100 μM
[7] = concentration of derivative of jasmonic acids 1000 μM

For `CC/C=C\CC1C(=NO)CCC1CC(=O)OC` (stereo not drawn) [Example 32], the “yield of cultured cells” value [1] was 22.0 g/L, the “yield of taxane-type diterpenes, baccatin III” value (“yield … baccatin III” for short) [1] was 6.7 mg/L and the “yield of taxane-type diterpenes, cephalomannine” value (shortened to “yield … cephalomannine”) [1] was 3.2 mg/L. For the same compound, the “yield of taxane-type diterpenes, taxol” value [1] was 16.7 mg/L, the “yield of cultured cells” value [2] was 21.1 g/L and the “yield … baccatin III” value [2] was 6.8 mg/L. The “yield … cephalomannine” value [2] was 3.6 mg/L, the “yield of taxane-type diterpenes, taxol” value [2] was 20.2 mg/L and the “yield of cultured cells” value [3] was 20.2 g/L. For the same compound, the “yield … baccatin III” value [3] was 7.5 mg/L, the “yield … cephalomannine” value [3] was 4.0 mg/L and the “yield of taxane-type diterpenes, taxol” value [3] was 24.1 mg/L. The “yield of cultured cells” value [4] was 19.5 g/L, the “yield … baccatin III” value [4] was 8.5 mg/L and the “yield … cephalomannine” value [4] was 4.2 mg/L. The “yield of taxane-type diterpenes, taxol” value [4] was 34.5 mg/L, the “yield of cultured cells” value [5] was 18.3 g/L and the “yield … baccatin III” value [5] was 13.5 mg/L. The “yield … cephalomannine” value [5] was 6.3 mg/L, the “yield of taxane-type diterpenes, taxol” value [5] was 56.2 mg/L and the “yield of cultured cells” value [6] was 16.4 g/L. The “yield … baccatin III” value [6] was 20.1 mg/L, the “yield … cephalomannine” value [6] was 9.2 mg/L and the “yield of taxane-type diterpenes, taxol” value [6] was 78.0 mg/L. The “yield of cultured cells” value [7] was 14.0 g/L, the “yield … baccatin III” value [7] was 9.3 mg/L and the “yield … cephalomannine” value [7] was 3.5 mg/L. For the same compound, the “yield of taxane-type diterpenes, taxol” value [7] was 17.2 mg/L.
`CC/C=C\CC1/C(=N\OC)CCC1CC(=O)OC` (stereo not drawn) [Example 33] was tested, and the “yield of cultured cells” value [6] was 16.1 g/L, the “yield … baccatin III” value [6] was 18.0 mg/L and the “yield … cephalomannine” value [6] was 5.2 mg/L. The “yield of taxane-type diterpenes, taxol” value [6] was 65.3 mg/L.
With `CC/C=C\CC1C(=NN)CCC1CC(=O)OC` (stereo not drawn) [Example 34] the “yield of cultured cells” value [6] was 16.7 g/L, the “yield … baccatin III” value [6] was 16.5 mg/L and the “yield … cephalomannine” value [6] was 6.6 mg/L. For the same compound, the “yield of taxane-type diterpenes, taxol” value [6] was 55.0 mg/L.
With `CC/C=C\CC1/C(=N\NC(N)=O)CCC1CC(=O)OC` (stereo not drawn) [Example 35] the “yield of cultured cells” value [6] was 15.3 g/L, the “yield … baccatin III” value [6] was 17.2 mg/L and the “yield … cephalomannine” value [6] was 5.0 mg/L. For the same compound, the “yield of taxane-type diterpenes, taxol” value [6] was 56.3 mg/L.
With `CC/C=C\CC1/C(=N\NC=O)CCC1CC(=O)OC` (stereo not drawn) [Example 36] the “yield of cultured cells” value [6] was 17.2 g/L, the “yield … baccatin III” value [6] was 18.5 mg/L and the “yield … cephalomannine” value [6] was 6.2 mg/L. For the same compound, the “yield of taxane-type diterpenes, taxol” value [6] was 79.5 mg/L.
`CC/C=C\CC1C(=NNS(C)(=O)=O)CCC1CC(=O)OC` (stereo not drawn) [Example 37] was tested, and the “yield of cultured cells” value [6] was 17.1 g/L, the “yield … baccatin III” value [6] was 15.3 mg/L and the “yield … cephalomannine” value [6] was 5.9 mg/L. For the same compound, the “yield of taxane-type diterpenes, taxol” value [6] was 73.3 mg/L.
With `CC/C=C\CC1C(=NC#N)CCC1CC(=O)OC` (stereo not drawn) [Example 38] the “yield of cultured cells” value [6] was 14.3 g/L, the “yield … baccatin III” value [6] was 14.5 mg/L and the “yield … cephalomannine” value [6] was 5.0 mg/L. For the same compound, the “yield of taxane-type diterpenes, taxol” value [6] was 82.9 mg/L.
With `CC/C=C\CC1C(=NS(N)(=O)=O)CCC1CC(=O)OC` (stereo not drawn) [Example 39] the “yield of cultured cells” value [6] was 17.1 g/L, the “yield … baccatin III” value [6] was 19.0 mg/L and the “yield … cephalomannine” value [6] was 7.5 mg/L. For the same compound, the “yield of taxane-type diterpenes, taxol” value [6] was 85.0 mg/L.
With `CC/C=C\CC1C(CC(=O)OC)CCC1NO` (stereo not drawn) [Example 40] the “yield of cultured cells” value [6] was 16.2 g/L, the “yield … baccatin III” value [6] was 14.2 mg/L and the “yield … cephalomannine” value [6] was 5.5 mg/L. For the same compound, the “yield of taxane-type diterpenes, taxol” value [6] was 73.3 mg/L.

Source: patent US6465221B1, “Method of producing a taxane-type diterpene” (Mitsui Chemicals, Inc., priority 1994, dated 2002)
